According to patent US10786474B2, “Pharmaceutical suspensions containing drug particles, devices for their administration, and methods of their use” (SynAgile Corporation, priority 2015, dated 2020):
Values after ≈ are worked out from the molar mass of the structure shown. Values joined by “and” are separate entries in the source; they are usually repeats but may differ in a detail not shown here. Equal values may be shown once. Read-outs that look alike come from different tables or passages of the source.

What was measured:
[1] = in vivo; cited from earlier work
[2] = extended release tablets; various studies; cited from earlier work
Solubility of LD = type: physicochemical; details: citrate buffered solution of about pH 4.5, 25° C.
Protocol: LD is poorly soluble in most non-toxic solvents, including water and alcohols. […] LD is even less soluble in alcohols. To deliver a typical daily dose of 1,000 mg approximately 150 mL of saturated LD aqueous solution would be required, which is incompatible with the volume requirements for a drug delivery device placed in the mouth.

[3] = assumed for dissolution of orally delivered solid LD in saliva; cited from earlier work

**Q.** For CCN(CC)C(=O)/C(C#N)=C/c1cc(O)c(O)c([N+](=O)[O-])c1 [Entacapone], which “crossing of the blood-brain barrier” value [1] is on record?
**A.** Its value is “does not cross the blood-brain barrier”.

**Q.** What about the physiological half-life [1] of the same compound?
**A.** Its physiological half-life is “less than 1 hour”.

**Q.** What about the plasma half-life [1] of the same compound?
**A.** Its plasma half-life is 0.4 to 0.7 h.

**Q.** With CC[C@@H](C(N)=O)N1CCCC1=O [Levetiracetam] as the compound, how does the “Fluctuation Index” value [2] read?
**A.** Its value is 1.19 and 1.27.

**Q.** For Cc1ccc(C(=O)c2cc(O)c(O)c([N+](=O)[O-])c2)cc1 [Tolcapone], which “crossing of the blood-brain barrier” value [1] is on record?
**A.** Its value is “crosses the barrier”.

**Q.** What about the hepatotoxicity [1] of the same compound?
**A.** Its hepatotoxicity is “limited by its hepatotoxicity”.

**Q.** And the plasma half-life [1]?
**A.** The plasma half-life was 2 to 3 h.

**Q.** With N[C@@H](Cc1ccc(O)c(O)c1)C(=O)O [LD, levodopa] as the compound, how does the solubility (Solubility of LD; aqueous buffer, read-out: solubility) read?
**A.** Its solubility is roughly 34 mM (≈ 6700 µg/mL).

**Q.** And the solubility (Solubility of LD)?
**A.** The solubility was “about 0.68 g/100 mL”.

**Q.** And the solubility [3]?
**A.** The solubility was “about 50 mg/mL”.

**Q.** For NC(=O)N1c2ccccc2C=Cc2ccccc21 [Carbamazepine], which “Fluctuation Index” value [2] is on record?
**A.** Its value is 0.31 and 0.26 and 0.47 and 0.49.
